Assay results taken from PubChem BioAssay AID463229 (Broad Institute, 2010).
Active and inactive are the calls of the source.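 Rule for the calls: active = compounds raising the signal whose fitted half-maximal concentration is at or below their top tested dose (cut at about 25 µM in these data); inconclusive = flat fit at 30 to 70% activity, or a poor fit; inactive = the rest.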

System: INS-1E rat beta cells, no cytokines, CellTiter-Glo ATP, 48 h
Test: cytokine-free beta-cell viability effect – INS-1E rat cells, ATP luminescence, cherry pick, counter-screen for beta-cell apoptosis protection project, dose response (AID 463229)

| Compound | AC50 |
| --- | --- |
| CC(C)c1ccc2c(c1)C(N1CCNCC1)Cc1ccc(F)cc1S2 (stereo not drawn) | 14.6 µM |
| CCCCC(=O)N1C/C=C\C(c2ccc(OC)cc2)N(Cc2ccc(F)cc2)C(=O)[C@H]1Cc1ccccc1 (stereo partly drawn) | 7.74 µM |
| CC(C)(C)c1ccc(OCc2ccc(C(=O)N/N=C/c3ccc(O)c(O)c3)cc2)cc1 | 8.35 µM |
| NC1=NC[C@@H](CC2CCCCC2)N1CCc1cc(C(F)(F)F)cc(C(F)(F)F)c1 | 9.46 µM |
| O=C(Oc1c(CN2CCOCC2)cc(Cl)c2cccnc12)c1cccs1 | 16 µM |
| CCCCCCCCCCOC(=O)C[N+](C)(C)C/C=C(/C)Cl | 16.7 µM |
| O=C(N/N=C/c1ccc(O)cc1O)c1ccc(NC(=O)C2CCCCC2)cc1 | 13 µM |
| CCc1ccc(C2=NNC(=Nc3cccc(S(=O)(=O)N(C)C)c3)SC2)cc1 | 3.66 µM |
| Oc1c(C(Nc2ccccn2)c2ccccn2)ccc2cccnc12 (stereo not drawn) | 6.16 µM |
| Cc1cccc(NC2=C/C(=N/S(=O)(=O)c3cccs3)c3ccccc3C2=O)c1 | 3.97 µM |
| COc1cccc(/C=N/NC(=O)c2ccoc2C)c1O | 11 µM |
| CC1CN(S(=O)(=O)c2ccc(C(=O)NCCCn3ccnc3)cc2)CC(C)O1 (stereo not drawn) | 1.39 µM |
| Cc1ccc(C2(c3ccc(C)cc3)CC2C(=O)Nc2ccc([N+](=O)[O-])cc2O)cc1 (stereo not drawn) | 3.79 µM |
| Cc1ccc(NC(=O)Cn2c(=O)oc3cc(S(=O)(=O)N4CCC(C)CC4)ccc32)cc1C | 16 µM |
| Cc1ccccc1Oc1cc(-n2ncc(Cl)c(Cl)c2=O)ncn1 | 3.98 µM |
| CC(C)CCCCCCNC(=S)Nc1ccc(S(=O)(=O)N2CCOCC2)cc1 | 12.6 µM |
| O=[N+]([O-])c1ccc(N2CCN(C(=S)NCc3ccc(Cl)cc3)CC2)cc1 | 10.3 µM |
| Cc1ccc(C)c(NC(=S)NC(NC(=O)Cc2cccc3ccccc23)C(Cl)(Cl)Cl)c1 (stereo not drawn) | 5.67 µM |
| CCCCC(CC)CN=C(N)NC(N)=NCCCCCCN=C(N)NC(N)=NCC(CC)CCCC (stereo not drawn) | 2.35 µM |
| O=C(N/N=C/c1c(O)ccc2ccccc12)c1ccc(Br)o1 | 4.83 µM |
| CC1=NN(c2ccc(C)c(C)c2)C(=O)/C1=C\C=C\c1ccc([N+](=O)[O-])o1 | 7.6 µM |
| O=C(NC(Nc1nc2ccc([N+](=O)[O-])cc2s1)(C(F)(F)F)C(F)(F)F)c1cccnc1 | 2.58 µM |
| O=C(CNC(=O)c1ccccc1)N/N=C/c1cc(Br)ccc1O | 15.2 µM |
| Oc1ccc(CCNc2ncnc3ccc(Cl)cc23)cc1 | 5.59 µM |
| COc1cnc(-c2ccccn2)nc1NC(C)C | 17.2 µM |
| Cc1ccc(NC2=C(N3CCCCC3)C(=O)c3ccccc3C2=O)cc1 | 1.9 µM |

| Compound | AC50 |
| --- | --- |
| CC(=O)c1c(C)oc2c1C(=O)c1ccccc1C2=O | 14.4 µM |
| CCN(CC)C(=O)c1cc([N+](=O)[O-])cc2c1-c1ccc([N+](=O)[O-])cc1C2=C(C#N)C#N | 9.06 µM |
| CNc1nc(N/N=C/c2cc3c(cc2[N+](=O)[O-])OCO3)nc(Nc2ccccc2)n1 | 14.2 µM |
| CCCCOc1ncnc2c1[nH]c1ccc(F)cc12 | 5.3 µM |
| COc1cc(-c2nc3ccc(C)cn3c2NCc2ccccc2)ccc1-c1cccc(Cl)c1 | 4.66 µM |
| Cc1ccc(Sc2cc(C)nc(-c3ccccn3)n2)cc1 | > 26 µM (inactive) |
| Cc1ccc(Nc2cc(C)nn2-c2nc(C)cc(=O)[nH]2)cc1 | 1.57 µM |
| CC#CC[N+](C)(C)CCCCCCCCCCCC | 2.23 µM |
| C/C(=N\NC(=O)Cc1ccc(Cl)cc1)c1ccccn1 | 4.89 µM |
| O=C(N/N=C/c1cccc(F)c1)c1c(O)c2ccccc2[nH]c1=O | 4.35 µM |
| CCCCCCCCCCCCCCCC[N+](C)(C)C | 7.81 µM |
| CCOC(=O)c1cnc(-n2nc(C)cc2C)nc1NNc1nc(-c2ccccc2)cc(-c2ccccc2)n1 | 4.09 µM |
| Cc1ccc(-c2nc(NC(=O)c3nn(C)cc3[N+](=O)[O-])sc2C)cc1 | 5.47 µM |
| c1ccc(C(c2ccccc2)N2CCN(c3nc4ccccc4n4cnnc34)CC2)cc1 | 4.73 µM |
| Cc1[nH]c2c(ccc3ccccc32)c1C1C(CCN)C1(C)C (stereo not drawn) | 14.6 µM |
| C/C(=N\NC(=O)COc1ccccc1-c1ccccc1)c1ccccn1 | 6.13 µM |
| COc1ccc(-n2c(-c3ccc(Br)cc3)c[n+]3c2CCCCC3)cc1 | 1.06 µM |
| O=C(Cc1cccs1)N/N=C\c1ccc([N+](=O)[O-])s1 | 7.04 µM |
| Cc1ccccc1C(=O)N1CCN(c2ccc(NC(=O)c3cccnc3)cc2)CC1 | 11.7 µM |
| O=[N+]([O-])c1c(Nc2ccccn2)cc(Cl)c2nonc12 | 7.39 µM |
| CCOc1ccc(Nc2c3ccccc3nc3ccccc23)cc1 | 7.36 µM |
| Cc1ccc(C[n+]2cccc(-c3ccccc3)c2)c(C)c1 | 5.1 µM |
| CCN1/C(=C\C=C\C2=[N+](CC)c3ccccc3C2(C)C)C(C)(C)c2ccccc21 | < 0.195 µM |
| CN(C)S(=O)(=O)c1cccc(NC(=S)N/N=C/c2cc(Br)ccc2O)c1 | 2.72 µM |
| Cc1cc(C)cc(Oc2cc(NC(=O)c3cn(C)nc3C)cc([N+](=O)[O-])c2)c1 | 2.58 µM |
| COc1cnc(-c2ccccn2)nc1N(C)C | 21.7 µM |

| Compound | AC50 |
| --- | --- |
| CC(C)C[C@H](NC(=O)c1nc[nH]c1C(=O)N[C@@H](CC(C)C)C(=O)OC(C)(C)C)C(=O)OCc1ccccc1 | 14.6 µM |
| O=C(Nc1ccc(OCC(F)(F)C(F)F)c(C(F)(F)F)c1)c1ccccc1O | 6.48 µM |
| Cc1ccc(C(=O)N/C(=C\c2ccc(-c3ccc(Cl)cc3)o2)C(=O)NCCCN(C)C)cc1 | 10.9 µM |
| CCC(CO)[n+]1c(C)cc(/C=C2\Sc3ccccc3N2Cc2ccccc2)cc1C (stereo not drawn) | 0.765 µM |
| C(=C\c1nc(N2CCCCCC2)c2ccccc2n1)/c1ccccc1 | 5.15 µM |
| O=C(Nc1nc2ccccc2[nH]1)c1ccccc1F | 2.14 µM |
| Cc1ccc(-c2c[n+](Cc3ccc(Cl)cc3)c3n2CCC3)cc1 | 7.79 µM |
| CCOc1cc(/C=N/NC(=O)c2cc(-c3cccc(OC)c3)nc3ccccc23)ccc1O | 6.59 µM |
| C/C(=N\NC(=O)c1nnn(-c2nonc2N)c1CN1CCc2ccccc21)c1ccccc1O | 11.4 µM |
| C/C(=N\NC(=O)c1cc(-c2cccnc2)nc2ccccc12)c1ccc(O)cc1O | 2.45 µM |
| Cc1[nH]c(N=Nc2ccccc2)nc1N=Nc1ccccc1 | 8.16 µM |
| C=C1C(=O)C=C2CN(C(=O)c3ccccc3)[C@@](Cc3ccc(F)cc3)(C(=O)OC)[C@@H]12 | 2.56 µM |
| CNC[C@H](CC1CCCCC1)NC[C@H](Cc1ccccc1)NCCC12CC3CC(CC(C3)C1)C2 | 4.44 µM |
| COc1ccc(-n2c(-c3ccc(Cl)cc3)c[n+]3c2CCCCC3)cc1 | 1.6 µM |
| Cc1cc(/C=N/n2cnnc2)c(C)n1-c1ccc(OCc2ccccc2F)cc1 | 4.05 µM |
| c1ccc(-c2nc(N3CCCCCC3)c3ccccc3n2)nc1 | 6.8 µM |
| CCC1=NN(C(=O)c2cccc(Br)c2)C(O)(c2ccc(Br)cc2)C1 (stereo not drawn) | 9.79 µM |
| Cc1ccc(N=Nc2c(O)ccc3n[nH]nc23)cc1 | 4.37 µM |
| Cc1noc(-c2ccc(C(F)(F)F)cc2)c1NC(=O)Nc1ccc(Cl)cc1 | 7.7 µM |
| Cc1cccc(OCc2n(CC(=O)OC3CC(C)CCC3C(C)C)c3ccccc3[n+]2C)c1 (stereo not drawn) | 4.12 µM |
| Cc1nc(Nc2ccc(Cl)c(Cl)c2)sc1C(=O)Nc1ccccc1 | 9.24 µM |
| CCC(=O)NC(c1ccc(Cl)cc1Cl)c1ccc2cccnc2c1O (stereo not drawn) | 2.34 µM |
| NC1=C(Br)C(=O)c2ccccc2C1=O | 18.2 µM |
| COc1ccc(C(CCNCc2ccc(OC(C)C)cc2)c2ccccc2OC)cc1 (stereo not drawn) | 7.84 µM |
| CCc1ccc(OC)c(S(=O)(=O)Nc2ccc(Cc3ccncc3)cc2)c1 | 6.36 µM |
| Cc1ccc2nc(-c3ccccn3)c(Nc3ccccc3C)n2c1 | 9.99 µM |
